Results as given in patent US8501446B2 (Vertex Pharmaceuticals Incorporated, priority 2004, dated 2013).

Columns and labels:
Format in all cases: biochemical
JAK3 = target: T1, JAK3 (Homo sapiens, UniProt P52333); experiment: JAK3 inhibition assay (standard radioactive enzyme assay); details: average Ki if more than one value determined
T1 sequence (P52333 1-1124): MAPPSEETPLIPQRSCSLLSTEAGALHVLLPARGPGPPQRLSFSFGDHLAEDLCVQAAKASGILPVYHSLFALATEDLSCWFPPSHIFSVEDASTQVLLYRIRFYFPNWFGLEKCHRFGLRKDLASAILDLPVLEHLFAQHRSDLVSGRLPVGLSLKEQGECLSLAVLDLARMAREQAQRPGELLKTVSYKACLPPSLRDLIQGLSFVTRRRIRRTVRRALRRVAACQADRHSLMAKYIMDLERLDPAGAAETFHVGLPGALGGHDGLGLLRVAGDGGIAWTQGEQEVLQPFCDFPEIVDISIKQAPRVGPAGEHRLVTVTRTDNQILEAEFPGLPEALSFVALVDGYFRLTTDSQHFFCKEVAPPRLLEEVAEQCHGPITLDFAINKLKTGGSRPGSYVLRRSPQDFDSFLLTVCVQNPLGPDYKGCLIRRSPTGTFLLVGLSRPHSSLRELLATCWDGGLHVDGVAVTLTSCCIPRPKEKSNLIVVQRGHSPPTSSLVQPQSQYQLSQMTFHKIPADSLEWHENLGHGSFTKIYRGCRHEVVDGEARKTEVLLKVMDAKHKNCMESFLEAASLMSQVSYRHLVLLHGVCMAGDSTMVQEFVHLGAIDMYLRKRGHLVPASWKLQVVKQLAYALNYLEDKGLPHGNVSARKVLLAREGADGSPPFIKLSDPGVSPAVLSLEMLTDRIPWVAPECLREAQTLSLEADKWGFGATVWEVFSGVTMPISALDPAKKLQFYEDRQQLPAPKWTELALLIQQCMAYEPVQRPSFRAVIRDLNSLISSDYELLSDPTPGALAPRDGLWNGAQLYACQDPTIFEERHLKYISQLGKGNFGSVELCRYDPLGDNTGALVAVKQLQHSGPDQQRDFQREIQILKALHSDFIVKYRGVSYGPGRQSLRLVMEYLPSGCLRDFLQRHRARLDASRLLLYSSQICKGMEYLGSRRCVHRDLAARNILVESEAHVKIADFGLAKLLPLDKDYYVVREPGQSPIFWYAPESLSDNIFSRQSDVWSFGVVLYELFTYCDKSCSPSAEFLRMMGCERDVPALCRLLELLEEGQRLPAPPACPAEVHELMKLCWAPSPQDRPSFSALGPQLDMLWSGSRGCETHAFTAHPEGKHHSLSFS
Method: (§1) Compounds were screened for their ability to inhibit JAK3 using a standard radioactive enzyme assay. 1.5 μL/well of a DMSO stock containing serial dilutions of a compound of the present invention (concentrations ranging from 667 μM to 46 nM) was placed in a 96 well polycarbonate plate. 50 μL per well of kinase buffer (100 mM HEPES (pH 7.4), 10 mM MgCl2, 25 mM NaCl, 1 mM DTT, and 0.01% bovine serum albumin (BSA)) containing 2 μM poly(Glu)4Tyr and 10 μM ATP was also added to the plate. To initiate the reaction, 50 μL kinase buffer containing 2 nM JAK3 enzyme was added. Final ATP concentration was 5 μM [γ-^33P] ATP (200 μCi ^33P ATP/μmol ATP (Perkin Elmer, Cambridge, Mass.). After 20 minutes at room temperature (25° C.), the reaction was stopped by adding 50 μL 20% trichloroacetic acid (TCA)/0.4 mM ATP to each well. The entire content of each well was then transferred to a 96 well glass fiber filter plate using a TomTek Cell Harvester. After washing, 60 μL scintillation fluid was added and ^33P incorporation detected using a Perkin Elmer TopCount. After removing mean background values for all of the data points the data was fit using Prism software to obtain a Ki(app). Inhibition of JAK2 was measured as above except that final poly(Glu)4Tyr concentration was 15 μM and final ATP concentration was 12 μM.

JAK2 = JAK2 (Homo sapiens, UniProt O60674); experiment: JAK2 inhibition assay (radioactive enzyme assay, as for JAK3); details: average Ki if more than one value determined
Sequence of JAK2 (O60674 whole entry, species assumed): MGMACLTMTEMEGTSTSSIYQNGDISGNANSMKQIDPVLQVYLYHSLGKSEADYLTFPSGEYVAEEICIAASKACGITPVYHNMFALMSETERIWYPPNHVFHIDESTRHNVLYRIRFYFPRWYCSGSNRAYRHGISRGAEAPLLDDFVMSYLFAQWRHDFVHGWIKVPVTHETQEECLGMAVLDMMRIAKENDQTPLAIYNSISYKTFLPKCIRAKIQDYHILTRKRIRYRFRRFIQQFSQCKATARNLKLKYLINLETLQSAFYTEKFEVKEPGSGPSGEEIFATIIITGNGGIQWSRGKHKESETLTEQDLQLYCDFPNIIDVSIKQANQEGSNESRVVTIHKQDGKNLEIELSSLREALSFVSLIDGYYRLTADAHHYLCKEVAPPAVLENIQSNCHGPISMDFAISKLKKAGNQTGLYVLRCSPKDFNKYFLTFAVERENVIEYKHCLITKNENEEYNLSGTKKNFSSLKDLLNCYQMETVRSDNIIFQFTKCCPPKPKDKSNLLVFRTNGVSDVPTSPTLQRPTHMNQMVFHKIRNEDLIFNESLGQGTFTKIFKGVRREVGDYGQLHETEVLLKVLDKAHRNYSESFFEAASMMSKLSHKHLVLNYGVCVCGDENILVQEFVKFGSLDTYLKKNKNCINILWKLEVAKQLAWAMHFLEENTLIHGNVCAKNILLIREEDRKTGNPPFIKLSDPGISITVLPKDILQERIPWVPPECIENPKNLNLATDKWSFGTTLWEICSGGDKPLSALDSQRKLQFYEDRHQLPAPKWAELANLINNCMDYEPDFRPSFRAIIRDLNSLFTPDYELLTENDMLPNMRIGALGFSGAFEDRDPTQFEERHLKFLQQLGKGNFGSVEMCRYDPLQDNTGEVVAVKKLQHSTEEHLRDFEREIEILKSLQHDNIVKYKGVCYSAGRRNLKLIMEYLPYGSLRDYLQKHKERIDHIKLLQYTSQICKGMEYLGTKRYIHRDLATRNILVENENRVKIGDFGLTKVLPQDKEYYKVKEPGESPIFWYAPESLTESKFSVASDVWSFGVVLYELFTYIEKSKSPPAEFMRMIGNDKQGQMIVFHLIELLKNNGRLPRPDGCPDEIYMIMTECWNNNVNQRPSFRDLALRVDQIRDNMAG
Method: as §1

ROCK I (AA 6-553) = target: T2, ROCK I (AA 6-553) (Homo sapiens, UniProt Q13464); experiment: ROCK inhibition assay, standard coupled enzyme system ("Enzyme"); details: enzyme-linked assay
T2 construct: ROCK I (AA 6-553)
T2 sequence (Q13464 6-553, species assumed): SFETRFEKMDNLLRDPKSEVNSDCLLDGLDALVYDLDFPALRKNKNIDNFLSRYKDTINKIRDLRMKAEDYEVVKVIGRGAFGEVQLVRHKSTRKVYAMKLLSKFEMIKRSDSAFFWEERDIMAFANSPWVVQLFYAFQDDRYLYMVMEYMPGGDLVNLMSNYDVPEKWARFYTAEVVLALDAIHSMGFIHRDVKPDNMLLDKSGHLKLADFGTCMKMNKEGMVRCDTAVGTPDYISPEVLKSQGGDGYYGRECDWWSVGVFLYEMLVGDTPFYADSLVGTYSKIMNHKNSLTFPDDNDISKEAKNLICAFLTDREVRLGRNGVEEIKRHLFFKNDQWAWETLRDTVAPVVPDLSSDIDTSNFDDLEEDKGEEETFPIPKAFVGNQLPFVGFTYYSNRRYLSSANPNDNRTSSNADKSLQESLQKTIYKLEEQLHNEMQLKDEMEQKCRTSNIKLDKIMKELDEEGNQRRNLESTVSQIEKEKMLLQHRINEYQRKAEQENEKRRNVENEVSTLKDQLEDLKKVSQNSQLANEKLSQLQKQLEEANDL
Outline: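 ROCK I (AA 6-553) at 45 nM and 30 °C with 45 μM ATP and 200 μM peptide, in 100 mM HEPES pH 7.5, 10 mM MgCl2, 25 mM NaCl, 2 mM DTT, 1.5% DMSO. ADP output read by a PK/LDH coupled system: 2.5 mM PEP, 350 μM NADH, 30 μg/ml PK, 10 μg/ml LDH.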

[1] = target: T3, full length Aurora-A (AA 1-403) (Homo sapiens, UniProt O14965); experiment: Aurora-A inhibition assay, standard coupled enzyme system; details: average Ki if more than one value determined
T3 construct: full length Aurora-A (AA 1-403)
T3 sequence (O14965 1-403): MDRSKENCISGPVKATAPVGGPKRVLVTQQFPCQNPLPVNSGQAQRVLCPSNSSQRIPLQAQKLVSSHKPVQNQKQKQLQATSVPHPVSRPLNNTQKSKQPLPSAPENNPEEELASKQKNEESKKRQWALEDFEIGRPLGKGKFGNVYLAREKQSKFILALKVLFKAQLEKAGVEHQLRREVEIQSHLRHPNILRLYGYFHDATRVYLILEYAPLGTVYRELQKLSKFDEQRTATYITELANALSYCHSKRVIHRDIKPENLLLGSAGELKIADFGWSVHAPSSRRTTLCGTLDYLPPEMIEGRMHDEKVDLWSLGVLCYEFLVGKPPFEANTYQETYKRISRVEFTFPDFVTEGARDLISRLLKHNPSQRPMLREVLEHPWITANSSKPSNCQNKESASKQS

CC(=O)N1[C@H](C)CN(c2cccc(-c3c[nH]c4ncc(NC(=O)[C@H]5CCCCN5)cc34)n2)C[C@@H]1C [Compound 171]
Ki (JAK3): < 500 nM
Ki (JAK2): < 500 nM
Ki (ROCK I (AA 6-553)): 500 to 5000 nM

CC(=O)N1[C@H](C)CN(c2cccc(-c3c[nH]c4ncc(NC(=O)c5ccccc5Cl)cc34)n2)C[C@@H]1C [Compound 173]
Ki (JAK3): < 500 nM
Ki (JAK2): < 500 nM
Ki (ROCK I (AA 6-553)): < 500 nM

O=C(O)Cc1cccc(-c2c[nH]c3ncc(Cl)cc23)c1 [Compound 178]
Ki (JAK3): 500 to 5000 nM
Ki (JAK2): 500 to 5000 nM
Ki (ROCK I (AA 6-553)): 500 to 5000 nM

CCC(C)C(=O)Nc1cnc2[nH]cc(-c3cccc(N4C[C@@H](C)N(C(C)=O)[C@@H](C)C4)n3)c2c1 (stereo partly drawn) [Compound 180]
Ki (JAK3): < 500 nM
Ki (JAK2): < 500 nM
Ki (ROCK I (AA 6-553)): 500 to 5000 nM

Clc1cnc2[nH]cc(-c3ccccc3)c2c1 [Compound 183]
Ki (JAK3): < 500 nM
Ki (JAK2): < 500 nM
Ki (ROCK I (AA 6-553)): 500 to 5000 nM

Clc1cnc2[nH]cc(-c3ccccn3)c2c1 [Compound 184]
Ki (JAK3): < 500 nM
Ki (JAK2): 500 to 5000 nM
Ki (ROCK I (AA 6-553)): 500 to 5000 nM

Clc1cnc2[nH]cc(-c3cccc(CNc4ccccc4)c3)c2c1 [Compound 186]
Ki (JAK3): < 500 nM
Ki [1]: < 500 nM
Ki (JAK2): < 500 nM

CC(=O)N1[C@H](C)CN(c2cccc(-c3c[nH]c4ncc(NC(=O)c5ccc(F)cc5)cc34)n2)C[C@@H]1C [Compound 189]
Ki (JAK3): < 500 nM
Ki (JAK2): < 500 nM
Ki (ROCK I (AA 6-553)): 500 to 5000 nM

CC(=O)N1[C@H](C)CN(c2cccc(-c3c[nH]c4ncc(OCc5ccccc5)cc34)n2)C[C@@H]1C [Compound 193]
Ki (JAK3): < 500 nM
Ki (JAK2): < 500 nM
Ki (ROCK I (AA 6-553)): < 500 nM

CC(=O)N1[C@H](C)CN(c2cccc(-c3c[nH]c4ncc(OCCCN(C)C)cc34)n2)C[C@@H]1C [Compound 194]
Ki (JAK3): < 500 nM
Ki (JAK2): < 500 nM
Ki (ROCK I (AA 6-553)): 500 to 5000 nM

Clc1cnc2[nH]cc(-c3ccc4ccccc4n3)c2c1 [Compound 195]
Ki (JAK3): < 500 nM
Ki (JAK2): 500 to 5000 nM
Ki (ROCK I (AA 6-553)): 500 to 5000 nM

Cc1cc(C(F)(F)F)cc(-c2c[nH]c3ncc(Cl)cc23)n1 [Compound 196]
Ki (JAK3): 500 to 5000 nM
Ki (JAK2): > 5000 nM
Ki (ROCK I (AA 6-553)): 500 to 5000 nM

Cc1cc(-c2c[nH]c3ncc(Cl)cc23)nc2ccccc12 [Compound 197]
Ki (JAK3): < 500 nM
Ki (JAK2): 500 to 5000 nM
Ki (ROCK I (AA 6-553)): 500 to 5000 nM

Cc1cc(-c2c[nH]c3ncc(Cl)cc23)c2ccccc2n1 [Compound 198]
Ki (JAK3): 500 to 5000 nM
Ki (JAK2): > 5000 nM
Ki (ROCK I (AA 6-553)): 500 to 5000 nM

Clc1cnc2[nH]cc(-c3ccc4ccccc4c3)c2c1 [Compound 199]
Ki (JAK3): < 500 nM
Ki (JAK2): 500 to 5000 nM
Ki (ROCK I (AA 6-553)): 500 to 5000 nM

Clc1cnc2[nH]cc(-c3ccc4ncccc4c3)c2c1 [Compound 200]
Ki (JAK3): < 500 nM
Ki (JAK2): 500 to 5000 nM
Ki (ROCK I (AA 6-553)): 500 to 5000 nM

COc1cccc(-c2c[nH]c3ncc(Cl)cc23)n1 [Compound 201]
Ki (JAK3): < 500 nM
Ki (JAK2): < 500 nM
Ki (ROCK I (AA 6-553)): 500 to 5000 nM

Clc1cnc2[nH]cc(-c3cccc4cccnc34)c2c1 [Compound 202]
Ki (JAK3): 500 to 5000 nM
Ki (JAK2): 500 to 5000 nM
Ki (ROCK I (AA 6-553)): 500 to 5000 nM

CC(C)(O)c1cccc(-c2c[nH]c3ncc(Cl)cc23)n1 [Compound 203]
Ki (JAK3): < 500 nM
Ki (JAK2): < 500 nM
Ki (ROCK I (AA 6-553)): 500 to 5000 nM
